Reference: ChEMBL document CHEMBL4417633, “Inhibitory polypeptides specific to WNT inhibitors” (2017)
Where a SMILES comes first, the peptide text is derived from it.

Key:
[1] = molecular target: T1, Dickkopf-related protein 1 (Homo sapiens, UniProt O94907); experiment: Inhibition of biotin-labeled human recombinant DKK1 assessed as reduction in DKK1 interaction with LRP-6/Fc incubated overnight by chemiluminescence based Alpha-screen assay
T1 sequence (O94907 whole entry): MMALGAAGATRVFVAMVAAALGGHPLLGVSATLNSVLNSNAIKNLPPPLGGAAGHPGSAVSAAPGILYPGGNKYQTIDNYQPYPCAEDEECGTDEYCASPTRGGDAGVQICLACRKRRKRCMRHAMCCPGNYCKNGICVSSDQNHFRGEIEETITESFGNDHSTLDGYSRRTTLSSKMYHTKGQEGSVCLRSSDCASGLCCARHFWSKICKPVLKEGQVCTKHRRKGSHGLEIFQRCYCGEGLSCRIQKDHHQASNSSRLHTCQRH

[2] = molecular target: T2, Dickkopf WNT-signaling pathway inhibitor 1 (Rattus norvegicus, UniProt A6I0Z0); experiment: Inhibition of biotin-labeled rat recombinant DKK1 assessed as reduction in DKK1 interaction with LRP-6/Fc incubated overnight by chemiluminescence based Alpha-screen assay
T2 sequence (A6I0Z0 whole entry): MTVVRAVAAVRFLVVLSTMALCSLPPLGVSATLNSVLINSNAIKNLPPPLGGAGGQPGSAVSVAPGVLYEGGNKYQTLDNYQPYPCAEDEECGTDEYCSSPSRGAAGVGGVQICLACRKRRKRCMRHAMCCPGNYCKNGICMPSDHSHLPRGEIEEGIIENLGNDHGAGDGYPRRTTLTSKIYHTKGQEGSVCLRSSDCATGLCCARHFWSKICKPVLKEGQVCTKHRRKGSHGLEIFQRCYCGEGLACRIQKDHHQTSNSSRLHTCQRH

Row | IC50 [1] | IC50 [2] | Structure (SMILES)
1 | ≤ 1 nM | ≤ 1 nM | CSCC[C@H](NC(=O)[C@@H]1CCCN1C(=O)[C@H](Cc1ccc(O)cc1)NC(=O)[C@H](CS)NC(=O)[C@H](Cc1cnc[nH]1)NC(=O)[C@H](CC(N)=O)NC(=O)[C@H](Cc1cnc[nH]1)NC(=O)[C@H](CCCCN)NC(=O)[C@H](CCCNC(=N)N)NC(=O)[C@H](CS)NC(=O)[C@H](CCCCN)NC(=O)[C@H](Cc1ccccc1)NC(=O)[C@H](Cc1ccc(O)cc1)NC(=O)[C@H](CO)NC(=O)[C@H](C)NC(=O)[C@@H]1CCCN1C(=O)[C@@H](N)CS)C(=O)N[C@@H](CCC(=O)O)C(=O)N[C@@H](Cc1c[nH]c2ccccc12)C(=O)N[C@@H](CCCNC(=N)N)C(=O)N[C@@H](CS)C(=O)N[C@@H](CC(=O)O)C(=O)NCC(=O)N[C@@H](Cc1ccccc1)C(=O)N[C@@H](CCC(N)=O)C(=O)N[C@@H](CC(=O)O)C(=O)N[C@@H](CS)C(=O)N[C@@H](CCC(=O)O)C(=O)N[C@@H](CC(=O)O)C(=O)NCC(=O)N[C@@H](CO)C(=O)N[C@@H](CC(=O)O)C(=O)N[C@@H](CCC(=O)O)C(=O)N[C@@H](CCC(N)=O)C(=O)N[C@@H](C)C(=O)N[C@@H](CS)C(=O)N1CCC[C@H]1C(=O)N[C@@H](Cc1ccc(O)cc1)C(=O)N[C@@H](CCCNC(=N)N)C(=O)N[C@H](C(=O)O)[C@@H](C)O (H-CPASYFKCRKHNHCYPMEWRCDGFQDCEDGSDEQACPYRT-OH)
2 | ≤ 1 nM | ≤ 1 nM | CSCC[C@H](NC(=O)[C@@H]1CCCN1C(=O)[C@H](Cc1ccc(O)cc1)NC(=O)[C@H](CS)NC(=O)[C@H](Cc1cnc[nH]1)NC(=O)[C@H](CC(N)=O)NC(=O)[C@H](Cc1ccc(O)cc1)NC(=O)[C@H](CC(N)=O)NC(=O)[C@H](CCCNC(=N)N)NC(=O)[C@H](CS)NC(=O)[C@H](CCCCN)NC(=O)[C@H](Cc1ccccc1)NC(=O)[C@H](Cc1ccc(O)cc1)NC(=O)[C@H](CO)NC(=O)[C@H](C)NC(=O)[C@@H]1CCCN1C(=O)[C@@H](N)CS)C(=O)N[C@@H](CCC(=O)O)C(=O)N[C@@H](Cc1c[nH]c2ccccc12)C(=O)N[C@@H](CCCNC(=N)N)C(=O)N[C@@H](CS)C(=O)N[C@@H](CC(=O)O)C(=O)NCC(=O)N[C@@H](Cc1ccccc1)C(=O)N[C@@H](CCCNC(=N)N)C(=O)N[C@@H](CC(=O)O)C(=O)N[C@@H](CS)C(=O)N[C@@H](CCC(=O)O)C(=O)N[C@@H](CC(=O)O)C(=O)NCC(=O)N[C@@H](CO)C(=O)N[C@@H](CC(=O)O)C(=O)N[C@@H](CCC(=O)O)C(=O)N[C@@H](CCC(=O)O)C(=O)NCC(=O)N[C@@H](CS)C(=O)N1CCC[C@H]1C(=O)N[C@@H](Cc1ccc(O)cc1)C(=O)N[C@@H](CCCNC(=N)N)C(=O)N[C@H](C(=O)O)[C@@H](C)O (H-CPASYFKCRNYNHCYPMEWRCDGFRDCEDGSDEEGCPYRT-OH)
3 | ≤ 1 nM | ≤ 1 nM | CSCC[C@H](NC(=O)[C@@H]1CCCN1C(=O)[C@H](Cc1ccc(O)cc1)NC(=O)[C@H](CS)NC(=O)[C@H](Cc1cnc[nH]1)NC(=O)[C@H](CC(N)=O)NC(=O)[C@H](CC(C)C)NC(=O)[C@H](CC(N)=O)NC(=O)CNC(=O)[C@H](CS)NC(=O)[C@H](CCC(N)=O)NC(=O)[C@H](Cc1ccccc1)NC(=O)[C@H](Cc1ccc(O)cc1)NC(=O)[C@H](CO)NC(=O)[C@H](C)NC(=O)[C@@H]1CCCN1C(=O)[C@@H](N)CS)C(=O)N[C@@H](CCC(=O)O)C(=O)N[C@@H](Cc1c[nH]c2ccccc12)C(=O)N[C@@H](CCCNC(=N)N)C(=O)N[C@@H](CS)C(=O)N[C@@H](CC(=O)O)C(=O)NCC(=O)N[C@@H](Cc1ccccc1)C(=O)N[C@@H](CCC(N)=O)C(=O)N[C@@H](CC(=O)O)C(=O)N[C@@H](CS)C(=O)N[C@H](C(=O)N[C@@H](CC(=O)O)C(=O)NCC(=O)N[C@@H](CO)C(=O)N[C@@H](CC(=O)O)C(=O)N[C@@H](CCC(=O)O)C(=O)N[C@@H](CCCCN)C(=O)NCC(=O)N[C@@H](CS)C(=O)N1CCC[C@H]1C(=O)N[C@@H](Cc1ccc(O)cc1)C(=O)N[C@@H](CCCNC(=N)N)C(=O)N[C@H](C(=O)O)[C@@H](C)O)C(C)C (H-CPASYFQCGNLNHCYPMEWRCDGFQDCVDGSDEKGCPYRT-OH)
